Experimental data from patent US20240174690A1, “ANNULATED 2-AMINO-3-CYANO THIOPHENES AND DERIVATIVES FOR THE TREATMENT OF CANCER” (BOEHRINGER INGELHEIM INTERNATIONAL GMBH, priority 2021, published 2024).
pIC50: −log10 of the molar value.

What was measured:
[1] = tested on: AsPC-1 cells; experiment: AsPC-1 CTG proliferation assay (120 h) (pancreatic cancer, G12D); assay type: cell-based; settings: Homo sapiens, ASPC1
Description: AsPC-1 CTG Proliferation Assay (120 h) (Pancreatic Cancer, G12D)
The CTG assay is designed to measure quantitatively the proliferation of AsPC-1 cells (ATCC […]), using the CellTiter Glow Assay Kit (Promega G7571). Cells are grown in RPMI medium (ATCC) supplemented with Fetal Calf Serum (Life Technologies, Gibco BRL, Cat. No. 10270-106). On “day 0” 2000 AsPC-1 cells are seeded in 60 μL RPMI ATCC+10% FCS+Penstrep in a 384-well plate, flat and clear bottom (Greiner, PNr. 781091). Cells are then incubated in the plates at 37° C. in a CO2 incubator overnight. On day 1, compounds (10 mM stock in DMSO) are added with the ECHO acoustic liquid handler system (Beckman Coulter), including DMSO controls. Plates are incubated for 120 h, and cell viability is measured using CellTiter-Glo luminescent cell viability reagent (Promega product code G7570). Viability (stated as percent of control) is defined as relative luminescence units RLU of each well divided by the RLU of cells in DMSO controls. IC50 values are determined from viability measurements by non-linear regression using a four-parameter model.

[2] = biological target: CYP3A4 (Homo sapiens (Human), UniProt P08684); experiment: Mechanism based inhibition of CYP3A4 assay (MBI 3A4); assay type: in vitro ADME; settings: hydroxy-midazolam formation after 30 min vs 0 min preincubation, 25 uM, human liver microsomes
Description: After preincubation, the incubate is diluted 1:10 and the substrate midazolam is added for the main incubation (15 min). The main incubation is quenched with acetonitrile and the formation of hydroxy-midazolam is quantified via LC/MS-MS. The formation of hydroxy-midazolam from the 30 min preincubation relative to the formation from the 0 min preincubation is used as a readout. Values of less than 100% mean that the substrate midazolam is metabolized to a lower extent upon 30 min preincubation compared to 0 min preincubation. In general low effects upon 30 min preincubation are desired (corresponding to values close to 100%/not different to the values determined with water control).

[3] = tested on: SK-CO-1 cells; experiment: SK-CO-1 CTG proliferation assay (120 h) (CRC, G12V); assay type: cell-based; settings: Homo sapiens; SK-CO-1 cells (CRC, G12V), CTG 120 h
Description: SK-CO-1 CTG Proliferation Assay (120 h) (CRC, G12V)
SK-CO-1 cells (ATCC HTB-39) are dispensed into 384-well plates, flat and clear bottom (Greiner, PNr. 781091) at a density of 500 cells per well in 60 μL EMEM (Sigma M5650)+10% Fetal Calf Serum (HyClone, PNr.: SH30084.03) and incubated at 37° C. in a CO2 incubator overnight. The next day, compounds (10 mM stock in DMSO) are added with the ECHO acoustic liquid handler system (Beckman Coulter), including DMSO controls. Plates are incubated for 120 h, and cell viability is measured using CellTiter-Glo luminescent cell viability reagent (Promega product code G7570). Viability (stated as percent of control) is defined as relative luminescence units RLU of each well divided by the RLU of cells in DMSO controls. IC50 values are determined from viability measurements by non-linear regression using a four-parameter model.

[4] = tested on: KRAS G12V-dependent Ba/F3 cells; experiment: Ba/F3 proliferation assay, KRAS G12V; assay type: cell-based; settings: Mus musculus, BaF3, 72 h, AlamarBlue;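 further: proliferation IC50 in KRAS G12V-dependent Ba/F3 cells read by AlamarBlue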
Method in brief: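 Ba/F3 cells retrovirally transduced with KRAS G12 mutants, puromycin-selected and grown without IL-3, so proliferation depends on the mutant KRAS. Compounds tested in technical duplicates; viability read by AlamarBlue fluorescence, with curve fitting for potency.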

[5] = Plasma protein binding assay (PPB), equilibrium dialysis, 10% FCS in PBS; assay type: in vitro ADME; settings: bovine, read-out: PPB 10% FCS (% fu)
Method in brief: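 Equilibrium dialysis (5-10 kg/mol cut-off membrane) of 1-10 μmol/L test compound in 10% FCS/PBS against PBS with or without dextran, 3-5 h at 37° C. Compound in each chamber quantified by LC-MS after protein precipitation; fu calculated from Cserum and Cbuffer.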

Sequence of CYP3A4 (P08684 whole entry): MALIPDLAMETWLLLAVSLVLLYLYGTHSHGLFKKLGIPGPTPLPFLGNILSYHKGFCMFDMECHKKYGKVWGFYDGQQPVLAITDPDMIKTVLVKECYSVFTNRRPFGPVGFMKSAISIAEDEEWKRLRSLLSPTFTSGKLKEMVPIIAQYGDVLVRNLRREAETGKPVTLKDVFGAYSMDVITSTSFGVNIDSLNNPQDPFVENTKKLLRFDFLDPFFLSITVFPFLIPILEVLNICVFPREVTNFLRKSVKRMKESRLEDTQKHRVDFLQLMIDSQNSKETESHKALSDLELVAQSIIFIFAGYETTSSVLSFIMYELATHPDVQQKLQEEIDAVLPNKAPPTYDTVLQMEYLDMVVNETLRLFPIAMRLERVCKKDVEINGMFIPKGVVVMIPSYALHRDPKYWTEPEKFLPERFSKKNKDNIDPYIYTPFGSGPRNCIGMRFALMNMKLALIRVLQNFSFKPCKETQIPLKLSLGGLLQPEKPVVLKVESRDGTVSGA

| Structure (SMILES) | pIC50 [1] | MBI 3A4 [2] | pIC50 [3] | pIC50 [4] | fraction unbound [5] |
| --- | --- | --- | --- | --- | --- |
| C[C@H](Oc1cc(C2CCOCC2)nc(-c2noc3c2CCC[C@@]32CCCc3sc(N)c(C#N)c32)n1)[C@@H]1CCCN1C [II-76] | 5.40 | 73% | 6.92 | 7.72 | 0.61 |
| CC(=O)N1CC=C(c2cc(O[C@@H](C)[C@@H]3CCCN3C)nc(-c3noc4c3CCC[C@@]43CCCc4sc(N)c(C#N)c43)n2)CC1 [II-81] | 5.31 | 62% | 7.49 | 7.89 | 0.52 |
| C[C@H](Oc1cc(-c2ccccn2)nc(-c2noc3c2CCC[C@@]32CCCc3sc(N)c(C#N)c32)n1)[C@@H]1CCCN1C [II-85] | 5.89 | 52% | 7.29 | 8.10 | 0.08 |
| C[C@H](Oc1cc([C@H]2CCOC2)nc(-c2noc3c2CCC[C@@]32CCCc3sc(N)c(C#N)c32)n1)[C@@H]1CCCN1C [II-88] | 5.70 | 77% | 7.33 | 8.22 | 0.2 |
| CO[C@@H]1C[C@@H]([C@H](C)Oc2cc(-c3ccn(C)n3)nc(-c3noc4c3CCC[C@@]43CCCc4sc(N)c(C#N)c43)n2)N(C)C1 [II-91] | 5.65 | 68% | 7.11 | 8.10 | 0.08 |
| C[C@H](Oc1cc([C@@H]2CCOC2)nc(-c2noc3c2CCC[C@@]32CCCc3sc(N)c(C#N)c32)n1)[C@@H]1CCCN1C [II-94] | 6.01 | 71% | 7.72 | 8.52 | 0.31 |
| C[C@H](Oc1cc(C2COCCO2)nc(-c2noc3c2CCC[C@@]32CCCc3sc(N)c(C#N)c32)n1)[C@@H]1CCCN1C (some centres unmarked) [II-95] | 5.48 | 68% | 6.47 | 7.57 | 0.53 |
| C[C@H](Oc1cc(-c2ccn(C)n2)nc(-c2noc3c2CCC[C@@]32CCCc3sc(N)c(C#N)c32)n1)[C@@H]1CCCN1C [II-96] | 5.65 | 85% | 7.17 | 8.30 | 0.25 |
| C[C@H](Oc1cc(-c2cccc(CO)c2)nc(-c2noc3c2CCC[C@@]32CCCc3sc(N)c(C#N)c32)n1)[C@@H]1CCCN1C [II-97] | 5.63 | 76% | 6.67 | 7.59 | 0.13 |

Other lines, results leading:

| pIC50 [1] | MBI 3A4 [2] | pIC50 [3] | pIC50 [4] | fraction unbound [5] | Structure (SMILES) |
| --- | --- | --- | --- | --- | --- |
| 5.67 | 48% | 7.08 | 7.85 | 0.49 | C[C@H](Oc1cc(-c2ccncc2)nc(-c2noc3c2CCC[C@@]32CCCc3sc(N)c(C#N)c32)n1)[C@@H]1CCCN1C [II-78] |
| 5.26 | 73% | 6.77 | 7.36 | 0.66 | C[C@H](Oc1cc(-c2cncnc2)nc(-c2noc3c2CCC[C@@]32CCCc3sc(N)c(C#N)c32)n1)[C@@H]1CCCN1C [II-82] |
| 5.38 | 68% | 6.92 | 7.85 | 0.34 | C[C@H](Oc1cc(-c2cnn(C)n2)nc(-c2noc3c2CCC[C@@]32CCCc3sc(N)c(C#N)c32)n1)[C@@H]1CCCN1C [II-86] |
| 5.51 | 64% | 7.15 | 7.60 | 0.26 | C[C@H](Oc1cc(-c2cn[nH]c2)nc(-c2noc3c2CCC[C@@]32CCCc3sc(N)c(C#N)c32)n1)[C@@H]1CCCN1C [II-87] |
